Test results: patent US9670221B2, “Furopyridines as bromodomain inhibitors” (GlaxoSmithKline Intellectual Property (No.2) Limited, priority 2013, dated 2017)
Counter-ions that a name gives are not always drawn.

Target: T1, BRD4 BD1 (Homo sapiens, UniProt O60885, Y390A)
T1 construct: BRD4 (1-477) (Y97A) and (Y390A); made in house; host or cells: E. coli (pET15b vector)
Assay: TR-FRET binding assay, BRD4 BD1 (mutant protein)
Conditions: BRD4 (1-477) mutant, 10 nM protein, read-out: pIC50 in the BRD4 BD1 assay (converted)
Procedure: Time Resolved Fluorescence Resonance Energy Transfer (TR-FRET) Assay
Binding was assessed using a time resolved fluorescent resonance energy transfer binding assay. This utilises a 6 His purification tag at the N-terminal of the proteins as an epitope for an anti-6 His antibody labeled with Europium chelate (PerkinElmer AD0111) allowing binding of the Europium to the proteins which acts as the donor fluorophore. A small molecule, high affinity binder of the bromodomains BRD2, BRD3, BRD4 and BRDT has been labeled with Alexa Fluor647 (Reference Compound X) and this acts as the acceptor in the FRET pair.
Assay Principle: In the absence of a competing compound, excitation of the Europium causes the donor to emit at λ618 nm which excites the Alexa labelled bromodomain binding compound leading to an increased energy transfer that is measurable at λ647 […]. In the presence of a sufficient concentration of a compound that can bind these proteins, the interaction is disrupted leading to a quantifiable drop in fluorescent resonance energy transfer.
The binding of the compounds of formula (I) to Bromodomains BRD2, BRD3, BRD4 and BRDT was assessed using mutated proteins to detect differential binding to either Binding Domain 1 (BD1) or Binding Domain 2 (BD2) on the bromodomain. These single residue mutations in the acetyl lysine binding pocket greatly lower the affinity of the fluoroligand (Reference Compound X) for the mutated domain (>1000 fold selective for the non-mutated domain). Therefore in the final assay conditions, binding of the fluoroligand to the mutated domain cannot be detected and subsequently the assay is suitable to determine the binding of compounds to the single non-mutated bromodomain.
Protein production: Recombinant Human Bromodomains [(BRD2 (1-473) (Y113A) and (Y386A), BRD3 (1-435) (Y73A) and (Y348A) BRD4 (1-477) (Y97A) and (Y390A) and BRDT (1-397) (Y66A) and (Y309A)] were expressed in E. coli cells (in pET15b vector for BRD2/3/4 and in pET28a vector for BRDT) with a 6-His tag at the N-terminal. The His-tagged Bromodomain pellet was resuspended in 50 mM HEPES (pH7.5), 300 mM NaCl, 10 mM imidazole & 1 μl/mL protease inhibitor cocktail and extracted from the E. coli cells using sonication and purified using a nickel sepharose high performance column, the proteins were washed and then eluted with a linear gradient of 0-500 mM imidazole with buffer 50 mM HEPES (pH7.5), 150 mM NaCl, 500 mM imidazole, over 20 column volumes. Final purification was completed by Superdex 200 prep grade size exclusion column. Purified protein was stored at −80° C. in 20 mM HEPES pH 7.5 and 100 mM NaCl. Protein identity was confirmed by peptide mass fingerprinting and predicted molecular weight confirmed by mass spectrometry.
Protocol for Bromodomain BRD2, 3, 4 and T, BD1^+BD2 mutant assays: All assay components were dissolved in buffer composition of 50 mM HEPES pH7.4, 50 mM NaCl, 5% Glycerol, 1 mM DTT and 1 mM CHAPS. The final concentration of bromodomain proteins were 10 nM and the Alexa Fluor647 ligand was at Kd. These components were premixed and 5 μl of this reaction mixture was added to all wells containing 50 nl of various concentrations of test compound or DMSO vehicle (0.5% DMSO final) in Greiner 384 well black low volume microtitre plates and incubated in dark for 30 minutes at room temperature. 5 μl of detection mixture containing 1.5 nM final concentration anti-6His Europium chelate was added to all wells and a further dark incubation of at least 30 minutes was performed. Plates were then read on the Envision platereader, (λex=317 nm, donor λem=615 nm; acceptor λem=665 nm; Dichroic LANCE dual). Time resolved fluorescent intensity measurements were made at both emission wavelengths and the ratio of acceptor/donor was calculated and used for data analysis. All data was normalized to the mean of 16 high (inhibitor control—Example 11 of WO 2011/054846A1) and 16 low (DMSO) control wells on each plate. […]

Q: Which IC50 does the source give for `C[C@@H]1CN(S(C)(=O)=O)CCN1Cc1cc2c(=O)n(C)cc(-c3ccncc3OCC3CC3(F)F)c2o1` (stereo partly drawn) [Example 61, 7-(3-((2,2-difluorocyclopropyl)methoxy)pyridin-4-yl)-5-methyl-2-(((R)-2-methyl-4-(methylsulfonyl)piperazin-1-yl)methyl)furo[3,2-c]pyridin-4(5H)-one] here?
A: ≤ 0.01 µM

Q: With `Cl.[2H]C([2H])([2H])n1cc(-c2ccnc(NC(C)=O)c2)c2oc(CN3CCN(S(C)(=O)=O)C[C@H]3C)cc2c1=O` [Example 62, (R)-N-(4-(5-(^2H3)methyl-2-((2-methyl-4-(methylsulfonyl)piperazin-1-yl)methyl)-4-oxo-4,5-dihydrofuro[3,2-c]pyridin-7-yl)pyridin-2-yl)acetamide] as the molecule, how does the IC50 read?
A: ≤ 0.1 µM

Q: With `C[C@@H]1CN(S(C)(=O)=O)CCN1Cc1cc2c(=O)n(C)cc(-c3cccc(NC(=O)CCCCN)c3)c2o1` [Example 64, (R)-5-amino-N-(3-(5-methyl-2-((2-methyl-4-(methylsulfonyl)piperazin-1-yl)methyl)-4-oxo-4,5-dihydrofuro[3,2-c]pyridin-7-yl)phenyl)pentanamide hydrochloride] as the molecule, how does the IC50 read?
A: ≤ 0.1 µM

Q: `CC(=O)Nc1cc(-c2cn(C)c(=O)c3cc(C(C)(C)N4CCN(S(C)(=O)=O)CC4)oc23)ccn1` [Example 65, N-(4-(5-methyl-2-(2-(4-(methylsulfonyl)piperazin-1-yl)propan-2-yl)-4-oxo-4,5-dihydrofuro[3,2-c]pyridin-7-yl)pyridin-2-yl)acetamide] was tested. Which IC50 did it give?
A: ≤ 0.1 µM

Q: With `COCCOc1cnccc1-c1cn(C)c(=O)c2cc(CN3CCN(S(C)(=O)=O)C[C@H]3C)oc12` [Example 66, (R)-7-(3-(2-methoxyethoxy)pyridin-4-yl)-5-methyl-2-((2-methyl-4-(methylsulfonyl)piperazin-1-yl)methyl)furo[3,2-c]pyridin-4(5H)-one] as the molecule, how does the IC50 read?
A: ≤ 0.1 µM

Q: `Cn1cc(-c2ccc(C(=O)O)cc2OCC2CC2)c2oc(CN3CCN(S(C)(=O)=O)CC3)cc2c1=O` [Example 67, 3-(cyclopropylmethoxy)-4-(5-methyl-2-((4-(methylsulfonyl)piperazin-1-yl)methyl)-4-oxo-4,5-dihydrofuro[3,2-c]pyridin-7-yl)benzoic acid] was tested. Which IC50 did it give?
A: ≤ 0.01 µM

Q: `CCNC(=O)c1ccc(-c2cn(C)c(=O)c3cc(CN4CCN(S(C)(=O)=O)CC4)oc23)c(OCC2CC2)c1` [Example 68, 3-(cyclopropylmethoxy)-N-ethyl-4-(5-methyl-2-((4-(methylsulfonyl)piperazin-1-yl)methyl)-4-oxo-4,5-dihydrofuro[3,2-c]pyridin-7-yl)benzamide] was tested. Which IC50 did it give?
A: ≤ 0.1 µM

Q: For `C[C@@H]1CN(S(C)(=O)=O)CCN1Cc1cc2c(=O)n(C)cc(-c3ccncc3OCC3CCOC3)c2o1` (stereo partly drawn) [Example 69, 5-methyl-2-(((R)-2-methyl-4-(methylsulfonyl)piperazin-1-yl)methyl)-7-(3-((tetrahydrofuran-3-yl)methoxy)pyridin-4-yl)furo[3,2-c]pyridin-4(5H)-one], which IC50 is on record?
A: ≤ 0.1 µM

Q: For `C[C@@H]1CN(S(C)(=O)=O)CCN1Cc1cc2c(=O)n(C)cc(-c3ccncc3OCC3CCCO3)c2o1` (stereo partly drawn) [Example 70, 5-methyl-2-(((R)-2-methyl-4-(methylsulfonyl)piperazin-1-yl)methyl)-7-(3-((tetrahydrofuran-2-yl)methoxy)pyridin-4-yl)furo[3,2-c]pyridin-4(5H)-one], which IC50 is on record?
A: ≤ 0.1 µM

Q: For `Cn1cc(-c2ccncc2OCC2CC2)c2oc(CN3CCNC(=O)C3)cc2c1=O` [Example 71, 7-(3-(cyclopropylmethoxy)pyridin-4-yl)-5-methyl-2-((3-oxopiperazin-1-yl)methyl)furo[3,2-c]pyridin-4(5H)-one hydrochloride], which IC50 is on record?
A: ≤ 0.1 µM

Q: How did the IC50 turn out when `C[C@@H]1CN(S(C)(=O)=O)CCN1Cc1cc2c(=O)n(C)cc(-c3ccncc3OCCF)c2o1` [Example 72, (R)-7-(3-(2-fluoroethoxy)pyridin-4-yl)-5-methyl-2-((2-methyl-4-(methylsulfonyl)piperazin-1-yl)methyl)furo[3,2-c]pyridin-4(5H)-one] was run?
A: ≤ 0.1 µM

Q: Which IC50 does the source give for `C[C@@H]1CN(S(C)(=O)=O)CCN1Cc1cc2c(=O)n(C)cc(-c3ccncc3OC3CC3)c2o1` [Example 73, (R)-7-(3-cyclopropoxypyridin-4-yl)-5-methyl-2-((2-methyl-4-(methylsulfonyl)piperazin-1-yl)methyl)furo[3,2-c]pyridin-4(5H)-one] here?
A: ≤ 0.1 µM

Q: `C[C@@H]1CN(S(C)(=O)=O)CCN1Cc1cc2c(=O)n(C)cc(-c3ccncc3OCC(F)F)c2o1` [Example 74, (R)-7-(3-(2,2-difluoroethoxy)pyridin-4-yl)-5-methyl-2-((2-methyl-4-(methylsulfonyl)piperazin-1-yl)methyl)furo[3,2-c]pyridin-4(5H)-one] was tested. Which IC50 did it give?
A: ≤ 0.1 µM

Q: How did the IC50 turn out when `CN1CCN(Cc2cc3c(=O)n(C)cc(-c4ccncc4OCC4CC4)c3o2)CC1=O` [Example 76, 7-(3-(cyclopropylmethoxy)pyridin-4-yl)-5-methyl-2-((4-methyl-3-oxopiperazin-1-yl)methyl)furo[3,2-c]pyridin-4(5H)-one hydrochloride] was run?
A: ≤ 0.1 µM

Q: How did the IC50 turn out when `COC(C)COc1cnccc1-c1cn(C)c(=O)c2cc(CN3CCN(S(C)(=O)=O)C[C@H]3C)oc12` (stereo partly drawn) [Example 78, 7-(3-(2-methoxypropoxy)pyridin-4-yl)-5-methyl-2-(((R)-2-methyl-4-(methylsulfonyl)piperazin-1-yl)methyl)furo[3,2-c]pyridin-4(5H)-one] was run?
A: ≤ 0.1 µM

Q: For `CC(=O)Nc1cc(-c2cn(C)c(=O)c3cc(CN4CCNC(=O)CC4)oc23)ccn1` [Example 82, N-(4-(5-methyl-4-oxo-2-((5-oxo-1,4-diazepan-1-yl)methyl)-4,5-dihydrofuro[3,2-c]pyridin-7-yl)pyridin-2-yl)acetamide], which IC50 is on record?
A: ≤ 0.1 µM

Q: Which IC50 does the source give for `CC(=O)Nc1cc(-c2cn(C)c(=O)c3cc(CN4CCS(=O)(=O)CC4)oc23)ccn1` [Example 87, N-(4-(2-((1,1-dioxidothiomorpholino)methyl)-5-methyl-4-oxo-4,5-dihydrofuro[3,2-c]pyridin-7-yl)pyridin-2-yl)acetamide] here?
A: ≤ 0.1 µM

Q: `CC(=O)Nc1cc(-c2cn(C)c(=O)c3cc(CN4CC(C)N(S(C)(=O)=O)CC4C)oc23)ccn1` (stereo not drawn) [Example 96, N-(4-(2-((2,5-dimethyl-4-(methylsulfonyl)piperazin-1-yl)methyl)-5-methyl-4-oxo-4,5-dihydrofuro[3,2-c]pyridin-7-yl)pyridin-2-yl)acetamide] was tested. Which IC50 did it give?
A: ≤ 0.1 µM

Q: With `CC(=O)Nc1cc(-c2cn(C)c(=O)c3cc(CN4CCC(=O)NCC4C)oc23)ccn1` (stereo not drawn) [Example 100, N-(4-(5-methyl-2-((2-methyl-5-oxo-1,4-diazepan-1-yl)methyl)-4-oxo-4,5-dihydrofuro[3,2-c]pyridin-7-yl)pyridin-2-yl)acetamide] as the molecule, how does the IC50 read?
A: ≤ 0.1 µM

Q: With `CC(=O)Nc1cc(-c2cn(C)c(=O)c3cc(CN4CCS(=O)(=O)CC4C)oc23)ccn1` (stereo not drawn) [Example 102, N-(4-(5-methyl-2-((3-methyl-1,1-dioxidothiomorpholino)methyl)-4-oxo-4,5-dihydrofuro[3,2-c]pyridin-7-yl)pyridin-2-yl)acetamide] as the molecule, how does the IC50 read?
A: ≤ 0.1 µM

Q: How did the IC50 turn out when `CC(=O)Nc1cc(-c2cn(C)c(=O)c3cc(CN4CCN(S(C)(=O)=O)[C@@H](C)C4)oc23)ccn1` [Example 108, (S)—N-(4-(5-methyl-2-((3-methyl-4-(methylsulfonyl)piperazin-1-yl)methyl)-4-oxo-4,5-dihydrofuro[3,2-c]pyridin-7-yl)pyridin-2-yl)acetamide] was run?
A: ≤ 0.1 µM
